Assay results as given in patent US12275731B2, “Azaindole inhibitors of wild-type and mutant forms of LRRK2” (DANA-FARBER CANCER INSTITUTE, INC., priority 2018, dated 2025).

Experiments:
Test in all cases: KinomeScan profiling
Type in all cases: binding
ANKK1 = target: T1, ANKK1 (Homo sapiens, UniProt Q8NFD2); conditions: ANKK1, 1 μM; read-out: % control
T1 construct: purchased KinomeScan®
T1 sequence (Q8NFD2 1-765): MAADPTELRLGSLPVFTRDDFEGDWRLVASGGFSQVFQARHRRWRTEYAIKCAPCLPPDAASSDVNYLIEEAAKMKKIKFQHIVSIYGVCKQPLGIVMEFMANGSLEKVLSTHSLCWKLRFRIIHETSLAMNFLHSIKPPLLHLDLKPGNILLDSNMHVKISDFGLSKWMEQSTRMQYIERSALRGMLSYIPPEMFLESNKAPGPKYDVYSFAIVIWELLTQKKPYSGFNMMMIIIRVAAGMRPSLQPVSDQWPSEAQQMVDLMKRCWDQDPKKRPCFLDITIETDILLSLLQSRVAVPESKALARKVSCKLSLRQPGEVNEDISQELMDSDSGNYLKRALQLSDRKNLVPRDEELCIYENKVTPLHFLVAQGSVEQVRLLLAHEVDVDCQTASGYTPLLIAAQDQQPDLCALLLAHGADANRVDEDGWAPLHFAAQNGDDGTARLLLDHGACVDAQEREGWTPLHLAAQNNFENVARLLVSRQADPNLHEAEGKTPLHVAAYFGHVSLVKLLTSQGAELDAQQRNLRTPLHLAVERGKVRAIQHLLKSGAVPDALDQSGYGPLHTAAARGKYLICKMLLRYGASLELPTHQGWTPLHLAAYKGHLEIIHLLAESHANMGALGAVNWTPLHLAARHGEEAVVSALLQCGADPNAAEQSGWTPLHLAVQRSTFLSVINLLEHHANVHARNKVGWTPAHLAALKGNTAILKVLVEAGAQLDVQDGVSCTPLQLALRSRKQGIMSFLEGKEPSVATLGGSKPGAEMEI
How it was run: (§1)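 1 μM cpd in DMSO; 468-kinase panel; readout RLU. % ctrl = (cpd − pos ctrl)/(neg ctrl − pos ctrl) ×100. Pos ctrl = 0%, DMSO = 100%. Hit cut-off <35%.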

MYO3B = target: T2, MYO3B (Homo sapiens, UniProt Q8WXR4); conditions: read-out: % control
T2 sequence (Q8WXR4 1-1341): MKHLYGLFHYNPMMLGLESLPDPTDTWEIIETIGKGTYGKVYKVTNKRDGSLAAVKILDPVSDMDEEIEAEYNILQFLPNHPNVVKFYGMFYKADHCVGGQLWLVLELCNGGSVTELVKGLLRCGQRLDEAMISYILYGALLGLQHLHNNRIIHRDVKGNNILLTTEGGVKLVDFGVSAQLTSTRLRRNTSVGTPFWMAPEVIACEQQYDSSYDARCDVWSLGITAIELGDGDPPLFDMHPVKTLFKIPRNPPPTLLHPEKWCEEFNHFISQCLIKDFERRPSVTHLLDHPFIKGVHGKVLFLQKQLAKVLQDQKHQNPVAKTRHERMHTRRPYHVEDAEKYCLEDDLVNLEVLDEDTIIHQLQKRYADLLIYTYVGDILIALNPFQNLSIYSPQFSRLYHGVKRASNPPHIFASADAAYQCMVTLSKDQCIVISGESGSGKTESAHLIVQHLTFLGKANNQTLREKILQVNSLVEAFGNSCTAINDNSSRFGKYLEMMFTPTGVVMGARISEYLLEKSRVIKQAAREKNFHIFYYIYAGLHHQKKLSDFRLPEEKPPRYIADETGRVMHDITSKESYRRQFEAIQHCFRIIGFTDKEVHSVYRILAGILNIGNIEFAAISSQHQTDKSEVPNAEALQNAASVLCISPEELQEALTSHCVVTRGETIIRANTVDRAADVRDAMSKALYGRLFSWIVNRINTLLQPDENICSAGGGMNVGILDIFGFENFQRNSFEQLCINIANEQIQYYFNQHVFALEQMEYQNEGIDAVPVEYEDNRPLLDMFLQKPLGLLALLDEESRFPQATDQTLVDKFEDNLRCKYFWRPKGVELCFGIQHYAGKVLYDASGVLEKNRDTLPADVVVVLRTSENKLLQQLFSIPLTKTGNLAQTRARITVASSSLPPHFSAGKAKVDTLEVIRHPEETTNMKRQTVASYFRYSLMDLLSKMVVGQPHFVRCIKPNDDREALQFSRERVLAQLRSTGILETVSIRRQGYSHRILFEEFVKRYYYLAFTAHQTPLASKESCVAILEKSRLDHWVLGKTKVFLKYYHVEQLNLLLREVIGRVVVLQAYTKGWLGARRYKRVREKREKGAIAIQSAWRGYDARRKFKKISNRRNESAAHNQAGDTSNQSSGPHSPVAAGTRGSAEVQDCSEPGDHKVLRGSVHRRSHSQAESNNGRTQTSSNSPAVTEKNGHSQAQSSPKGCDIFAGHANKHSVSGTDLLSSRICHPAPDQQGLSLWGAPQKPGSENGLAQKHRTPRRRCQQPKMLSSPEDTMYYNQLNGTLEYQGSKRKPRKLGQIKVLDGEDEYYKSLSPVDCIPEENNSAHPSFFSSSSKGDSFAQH
How it was run: as §1

PKAC-beta = target: T3, PKAC-beta (Homo sapiens, UniProt P22694); conditions: read-out: % control
T3 construct: purchased KinomeScan® (panel service)
How it was run: as §1

TESK1 = TESK1 (Homo sapiens, UniProt Q15569); conditions: TESK1, 1 μM; read-out: % control
How it was run: as §1

TESK1, sequence (Q15569 whole entry): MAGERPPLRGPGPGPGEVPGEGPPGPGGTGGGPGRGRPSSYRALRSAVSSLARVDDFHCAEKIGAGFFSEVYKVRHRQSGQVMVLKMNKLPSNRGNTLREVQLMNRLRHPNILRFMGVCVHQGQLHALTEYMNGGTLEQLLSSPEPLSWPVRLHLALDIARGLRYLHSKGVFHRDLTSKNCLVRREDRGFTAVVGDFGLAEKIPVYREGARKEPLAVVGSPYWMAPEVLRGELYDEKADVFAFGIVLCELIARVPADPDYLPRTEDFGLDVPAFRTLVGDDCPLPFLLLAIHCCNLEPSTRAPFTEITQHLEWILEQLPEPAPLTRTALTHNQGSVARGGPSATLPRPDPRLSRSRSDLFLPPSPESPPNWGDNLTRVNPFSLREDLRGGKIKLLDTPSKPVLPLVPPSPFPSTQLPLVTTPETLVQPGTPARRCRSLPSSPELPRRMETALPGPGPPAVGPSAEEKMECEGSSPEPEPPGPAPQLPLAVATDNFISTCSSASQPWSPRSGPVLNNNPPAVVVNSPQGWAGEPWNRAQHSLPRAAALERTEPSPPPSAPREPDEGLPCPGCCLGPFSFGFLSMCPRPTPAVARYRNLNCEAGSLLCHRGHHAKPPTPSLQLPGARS

Row | SMILES | remaining binding at 1 µM (ANKK1) [%] | remaining binding at 1 µM (MYO3B) [%] | remaining binding at 1 µM (PKAC-beta) [%] | remaining binding at 1 µM (TESK1) [%]
1 | CNc1c(-c2cnn([C@H]3CCN(C(C)=O)C[C@@H]3F)c2)cnc2[nH]cc(Cl)c12 [Compound 77, 1-((3S,4S)-4-(4-(3-chloro-4-(methylamino)-1H-pyrrolo[2,3-b]pyridin-5-yl)-1H-pyrazol-1-yl)-3-fluoropiperidin-1-yl)ethan-1-one] | 73 | 96 | 100 | 89
2 | CNc1c(-c2ccc(C(=O)N3CCC(N4CCOCC4)CC3)cc2)cnc2[nH]cc(Cl)c12 [Compound 96, (4-(3-chloro-4-(methylamino)-1H-pyrrolo[2,3-b]pyridin-5-yl)phenyl)(4-morpholinopiperidin-1-yl)methanone] | 51 | 73 | 100 | 74
3 | O=C(c1ccc(-c2cnc3[nH]cc(Cl)c3c2NC2CCCC2)cc1)N1CCC(N2CCOCC2)CC1 [Compound 101, (4-(3-chloro-4-(cyclopentylamino)-1H-pyrrolo[2,3-b]pyridin-5-yl)phenyl)(4-morpholinopiperidin-1-yl)methanone] | 100 | 93 | 90 | 99
